Experiments:
Format in all cases: in vivo
[1] = system: barnyardgrass (Echinochloa crus-galli); assay: Test B pre-/postemergence plant response
Summary of the method: (§1)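 Ratings reflect visual injury versus untreated controls, from 0 for no effect to 100 for complete control, assessed roughly 10 days after treatment. Formulation: non-phytotoxic solvent mix with surfactant; pre- and postemergence sprays on plants grown in loam soil and sand.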

[2] = system: corn (Zea mays); assay: Test B pre-/postemergence plant response
Summary of the method: as §1

[3] = system: giant foxtail (Setaria faberii); assay: Test B pre-/postemergence plant response
Summary of the method: as §1

[4] = system: pigweed (Amaranthus retroflexus); assay: Test B pre-/postemergence plant response
Summary of the method: as §1

[5] = system: wheat (Triticum aestivum); assay: Test B pre-/postemergence plant response
Summary of the method: as §1

[6] = system: barnyardgrass (Echinochloa crus-galli); assay: Test C flooded paddy test plant response; conditions: Flood, 250 g ai/ha; scale of 0 to 100 where 0 is no effect and 100 is complete control; 13 to 15 days
Summary of the method: (§2)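 Greenhouse paddy assay, 13–15 days. Treatment into 3 cm floodwater over 2-leaf plants; visual 0–100 rating against controls.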

[7] = system: ducksalad (Heteranthera limosa); assay: Test C flooded paddy test plant response; conditions: Flood, 250 g ai/ha; scale of 0 to 100 where 0 is no effect and 100 is complete control; 13 to 15 days
Summary of the method: as §2

[8] = system: rice (Oryza sativa); assay: Test C flooded paddy test plant response; conditions: Flood, 250 g ai/ha; scale of 0 to 100 where 0 is no effect and 100 is complete control; 13 to 15 days
Summary of the method: as §2

[9] = system: small-flower umbrella sedge (Cyperus difformis); assay: Test C flooded paddy test plant response; conditions: Flood, 250 g ai/ha; scale of 0 to 100 where 0 is no effect and 100 is complete control; 13 to 15 days
Summary of the method: as §2

[10] = system: blackgrass (Alopecurus myosuroides); assay: Test D pre-/postemergence plant response; conditions: Postemergence; for Blackgrass plant response rating: scale 0 to 100 (0 no effect, 100 complete control); for Plant response rating, Blackgrass: scale 0 to 100, 0 no effect, 100 complete control
Summary of the method: (§3)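 Visual injury scoring (0–100) at 13 to 15 days in greenhouse. Preemergence sprays on seeded loam/sand; postemergence sprays on 1–4 leaf plants.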

[11] = system: galium (catchweed bedstraw, Galium aparine); assay: Test D pre-/postemergence plant response; conditions: Postemergence; for Plant response rating, Galium: scale 0 to 100, 0 no effect, 100 complete control
Summary of the method: as §3

[12] = system: johnsongrass (Sorghum halepense); assay: Test D pre-/postemergence plant response; conditions: Postemergence; for Plant response rating, Johnsongrass: scale 0 to 100, 0 no effect, 100 complete control
Summary of the method: as §3

[13] = system: lambsquarters (Chenopodium album); assay: Test D pre-/postemergence plant response; conditions: Postemergence; for Plant response rating, Lambsquarters: scale 0 to 100, 0 no effect, 100 complete control
Summary of the method: as §3

[14] = system: large (Lg) crabgrass (Digitaria sanguinalis); assay: Test D pre-/postemergence plant response; conditions: Postemergence; for Crabgrass, Large plant response rating: scale 0 to 100 (0 no effect, 100 complete control); for Plant response rating, Crabgrass, Large: scale 0 to 100, 0 no effect, 100 complete control
Summary of the method: as §3

[15] = system: velvetleaf (Abutilon theophrasti); assay: Test D pre-/postemergence plant response; conditions: Postemergence
Summary of the method: as §3

[16] = system: winter wheat (Triticum aestivum); assay: Test D pre-/postemergence plant response; conditions: Postemergence; for Plant response rating, Wheat: scale 0 to 100, 0 no effect, 100 complete control
Summary of the method: as §3

[17] = 31 g ai/ha, Preemergence, 0 to 100 scale where 0 is no effect and 100 is complete control
[18] = 125 g ai/ha, postemergence, 0 to 100 scale, 0 no effect, 100 complete control
[19] = Postemergence, 31 g ai/ha, 0 to 100 scale (0 no effect, 100 complete control)
[20] = Preemergence, 125 g ai/ha, 0 to 100 scale (0 no effect, 100 complete control)
[21] = 31 g ai/ha, scale 0 to 100 (0 no effect, 100 complete control)

FC(F)(Br)c1cc(-c2ccccc2Oc2ncc(Cl)cn2)no1 [Compound 162]
Plant response rating, Barnyardgrass [1, 17]: 20 | Plant response rating, Barnyardgrass [1, 18]: 90 | Plant response rating, Barnyardgrass [1, 19]: 10 | Barnyardgrass plant response rating [1, 20]: 100 | Plant response rating, Corn [2, 18]: 40 | Plant response rating, Corn [2, 19]: 20 | Plant response rating, Foxtail, Giant [3, 17]: 90 | Plant response rating, Foxtail, Giant [3, 18]: 90 | Plant response rating, Foxtail, Giant [3, 19]: 10 | Foxtail, Giant plant response rating [3, 20]: 100 | Plant response rating, Pigweed [4, 17]: 80 | Plant response rating, Pigweed [4, 18]: 100 | Plant response rating, Pigweed [4, 19]: 100 | Pigweed plant response rating [4, 20]: 100 | Plant response rating, Wheat [5, 18]: 30 | Plant response rating, Wheat [5, 19]: 20 | Barnyardgrass plant response rating [6]: 0 | Ducksalad plant response rating [7]: 0 | Rice plant response rating [8]: 0 | Sedge, Umbrella plant response rating [9]: 0 | Blackgrass plant response rating ([10]; 16 g ai/ha): 0 | Blackgrass plant response rating ([10]; 31 g ai/ha): 30 | Plant response rating, Blackgrass ([10]; 62 g ai/ha): 30 | Plant response rating, Blackgrass ([10]; 125 g ai/ha): 45 | Galium plant response rating [11, 21]: 60 | Plant response rating, Galium ([11]; 62 g ai/ha): 60 | Plant response rating, Galium ([11]; 125 g ai/ha): 80 | Johnsongrass plant response rating [12, 21]: 5 | Plant response rating, Johnsongrass ([12]; 62 g ai/ha): 10 | Plant response rating, Johnsongrass ([12]; 125 g ai/ha): 20 | Lambsquarters plant response rating [13, 21]: 65 | Plant response rating, Lambsquarters ([13]; 62 g ai/ha): 75 | Plant response rating, Lambsquarters ([13]; 125 g ai/ha): 95 | Crabgrass, Large plant response rating ([14]; 16 g ai/ha): 5 | Crabgrass, Large plant response rating ([14]; 31 g ai/ha): 5 | Plant response rating, Crabgrass, Large ([14]; 62 g ai/ha): 10 | Plant response rating, Crabgrass, Large ([14]; 125 g ai/ha): 20 | Velvetleaf plant response rating [15, 21]: 40 | Plant response rating, Velvetleaf ([15]; 62 g ai/ha, scale 0 to 100, 0 no effect, 100 complete control): 75 | Wheat plant response rating [16, 21]: 0 | Plant response rating, Wheat ([16]; 62 g ai/ha): 5 | Plant response rating, Wheat ([16]; 125 g ai/ha): 5

From patent US10131652B2, “Pyrimidinyloxy benzene derivatives as herbicides” (E. I. DU PONT DE NEMOURS AND COMPANY, priority 2014, dated 2018)
